Tests used:
Acs2/WS2 = assay: Acs2/WS2-coupled assay with oleic acid and ethanol (TLC); assay type: biochemical, Marinobacter hydrocarbonoclasticus; conditions: oleic acid and ethanol as substrates, each 250 μM, 37° C. overnight
Protocol: In vitro coupled assays/TLC analysis—Stock solutions of various fatty acid substrates (oleic acid) were prepared in 50 mM Tris-HCl buffer (pH 8) containing 1% gum arabic, […], 0.1% taurocholate, and 100 mM of fatty acid. WS/Acs enzyme coupled assays were carried out in 500 μL reactions containing 50 mM Tris-HCl buffer pH 8.0, 12.5 μL of fatty acid stock solution and addition of ethyl alcohol solution (final concentrations of each substrate 250 μM), 10 mM MgCl2, 10 mM CoASH, 10 mM ATP, 5 mM TCEP, 0.1 U of inorganic pyrophosphatase, 0.25 μg of Acs2 (acyl CoA synthetase) and 0.5 μg of WS2 (wax ester synthase). Assays were incubated at 37° C. overnight before thin-layer chromatography (TLC) analysis of reaction products. In vitro WS assay samples were extracted with 500 μL of chloroform:methanol (1:1 [vol/vol]), and chloroform:methanol extracts were analyzed by TLC with Whatman normal phase silica gel 60 plates where products were separated using hexane:diethyl ether:acetic acid (90:10:1 [vol/vol/vol]). Products were compared to an ethyloleate standard. Resolved TLC plates were stained with iodine vapor.

[1] = tested on: S. cerevisiae YGL035c expressing WS2; assay: Heterologous expression of WS2 in MIG1 deletion yeast, ethyloleate by TLC and GC; assay type: cell-based, Saccharomyces cerevisiae
Protocol: S. cerevisiae YGL035c BY4742 with following genotype: MATalpha his3Δ1 leu2Δ0 lys2Δ0 ura3Δ0 ΔMIG1 was purchased from ATCC ([…]; Manassas, Va.). S. cerevisiae YGL035c was cultivated for electro transformation in YPG (Yeast peptone glucose) medium at 30° C. overnight. 100 μL of washed yeast cell pellets were electroporated with 5 μL of pESC_URA for the negative control or 5 μL of pESC URA WS2, which expresses acyltransferase gene constructs. Cells were rescued with 800 μL 1M sorbitol and 200 μL were plated onto synthetic minimal media drop out agar plates without uracil. Colonies were seen after 2 days and were picked and grown in nitrogen base medium (Difco Detroit Mich.) […], and 0.13% (wt/vol), synthetic dropout medium supplement without uracil, and 2% (wt/vol) glucose. One hundred milliliter yeast cultures were grown aerobically overnight at 30° C. in 250 ml flask with synthetic dropout uracil growth media with glucose. Cells were spun down and resuspended in 200 mL of fresh dropout media with 2% glucose, 0.1% potassium oleate, and 2% galactose to induce expression of heterologous protein. Cultures were capped with a rubber stopper with syringe needle piercing the top of the rubber stopper to allow gas (carbon dioxide) to exit during the 72 hours anaerobic growth. Cells were harvested and resuspended in 1 mL of chloroform and approximately 0.5 grams of glass beads. Total lipid composition of yeast was determined from cells harvested from a 200-ml liquid culture, broken with glass-beads in a 50-mL Falcon tube, and extracted into 1.5 mL of chloroform.
Cells were vortexed vigorously for 5 minutes to lyse open cells and chloroform was removed and evaporated under nitrogen gas. 15 mL sample of 250 mL cultures were centrifuged and lysed with glass beads, the yeast lysates were resuspended in 1 ml chloroform for GC/MS analysis and TLC analysis.
Fifteen milliliters of grown yeast were centrifuged for 10 minutes at 4000 rpm. […]
For quantification of ethyloleate, chloroform extractions of three known amounts (1.5 nmoles, 15 nmoles, and 30 nmoles) of ethyloleate standard were injected into the gas chromatograph (GC) in which the peak areas were integrated to calculate the amounts of ethyloleate produced by YGL035c expressing WS2. Three microliters of chloroform extracts from the samples were injected and analyzed on a gas chromatography electron impact mass spectrometry that were performed with a Hewlett Packard 6890 series gas chromatograph connected to an HP 5973 mass spectrometer. […]

[2] = tested on: S. cerevisiae H1246 expressing WS2; assay: Heterologous expression of WS2 in TAG deficient yeast, FAEE by TLC; assay type: cell-based, Saccharomyces cerevisiae; conditions: H1246 given both ethanol and oleic acid as substrates
Protocol: Fifteen milliliters of grown yeast were centrifuged for 10 minutes at 4000 rpm. The cell pellets were vortexed vigorously with glass beads for 5 minutes to lyse open cells and extracted with 1 mL chloroform of which 5 μL were spotted on TLC with Whatman normal phase silica gel 60 plates and developed using hexane:diethyl ether:acetic acid (90:10:1, v/v/v). TLC plates were stained with either iodine vapor.

SMILES	Ethyloleate formation in Acs2/WS2-coupled assay (TLC) (Acs2/WS2)	% Efficiency oleate to ethyloleate ([1]; 0.1% (wt/vol) oleate in 250 mL (889 μmoles))	Ethyloleate formed from the oleate added ([1]; 250 mL culture, 889 μmoles oleate added)	Ethyloleate production in vivo (TLC) ([1]; Mig1 deletion yeast expressing pESC-URA-WS2, galactose induced, grown anaerobically with 0.1% potassium oleate)	Ethyloleate production in vivo (TLC) ([1]; potassium oleate not supplemented)	Ethyloleate production in vivo (TLC) [2]
CCCCCCCC/C=C\CCCCCCCC(=O)O [oleic acid]	ethyloleate ester product was synthesized in vitro	5.5%				
CCCCCCCC/C=C\CCCCCCCC(=O)OCC [ethyloleate]			approximately 50 μmol	shown in vivo	No ethyloleate product was seen	produced in vivo

Source: US7897369B2, “Isoprenoid wax ester synthases, isoprenoid acyl CoA-synthetases, and uses thereof” (Regents of the University of Minnesota, priority 2007, dated 2011)
